{"source": "ChEMBL document CHEMBL6177955", "about": "“Design, synthesis and biological evaluation of Golgi-targeting anion transporters as inducers of Golgiphagy and apoptosis in cancer cells” (Eur J Med Chem, 2025)", "key": {"HepG2 [1]": {"test_system": "HepG2", "assay": "Antitumor activity against human HepG2 cells xenografted mouse model assessed as reduction GRASP55 expression in tumor tissue at 5 to 10 mg/kg, ip administered once every 2 days for 21 days", "assay_type": "functional, organism-based", "conditions": "dose 5-10 mg/kg, time 21.0 day"}, "HepG2 [2]": {"test_system": "HepG2", "assay": "Induction of autophagosome formation in human HepG2 cells assessed as green fluorescence in endoplasmic reticulum (ER) by measuring pearson co-localization at 10 uM measured after 12 hrs incubation by mCherry-LC3B assay", "assay_type": "functional"}, "Lipid bilayer [3]": {"test_system": "Lipid bilayer", "assay": "Vesicular anionophoric activity in large unilamellar vesicle membrane derived from egg-yolk L-alpha-phosphatidylcholine assessed as induction of relative efflux of chloride ions in presence of sodium (Na+) measured up to 300 seconds by using chloride-selective electrode", "conditions": "time <= 300.0 sec"}, "HCT-8": {"test_system": "HCT-8", "assay": "Antiproliferative activity against human HCT-8 cells by MTT assay", "assay_type": "functional, cell-based"}, "[4]": {"assay": "Toxicity in mouse xenografted with human HepG2 cells assessed as histopathological changes in lung at 5 to 10 mg/kg, ip administered once every 2 days for 21 days by H and E staining based analysis", "assay_type": "organism-based", "conditions": "in vivo, 504 h, dose 5-10 mg/kg, time 21 day"}, "HepG2 [5]": {"test_system": "HepG2", "assay": "Antitumor activity against human HepG2 cells xenografted mouse model assessed as reduction Golgi-associated apoptotic proteins (GAAPs) expression in tumor tissue at 5 to 10 mg/kg, ip administered once every 2 days for 21 days", "assay_type": "functional, organism-based", "conditions": "dose 5-10 mg/kg, time 21.0 day"}, "HepG2 [6]": {"test_system": "HepG2", "assay": "Antitumor activity against human HepG2 cells xenografted mouse model assessed as reduction GM130 expression in tumor tissue at 5 to 10 mg/kg, ip administered once every 2 days for 21 days", "assay_type": "functional, organism-based", "conditions": "dose 5-10 mg/kg, time 21.0 day"}, "HepG2 [7]": {"test_system": "HepG2", "assay": "Antitumor activity against human HepG2 cells xenografted mouse model assessed as reduction in tumor growth inhibition at 10 mg/kg, ip administered once every 2 days for 21 days relative to control", "assay_type": "functional", "conditions": "HepG2, 504 h, time 21 day, read-out: TGI"}, "HepG2 [8]": {"test_system": "HepG2", "assay": "Suppression of Golgi structural and functional protein expression in human HepG2 cells assessed as decrease in GRASP55 protein expression at 5 to 20 uM measured after 48 hrs incubation by Western blot analysis", "assay_type": "cell-based", "conditions": "dose 5-20 µM"}, "Lipid bilayer [9]": {"test_system": "Lipid bilayer", "assay": "Vesicular anionophoric activity in large unilamellar vesicle membrane derived from egg-yolk L-alpha-phosphatidylcholine assessed as induction of relative efflux of chloride ions measured up to 300 seconds by using chloride-selective electrode"}, "HepG2 [10]": {"test_system": "HepG2", "assay": "Induction of apoptosis in human HepG2 cells assessed as necrotic cells at 20 uM measured after 24 hrs incubation by Propidium iodide/Annexin V-FITC analysis (reference value: 1.14%)", "assay_type": "functional"}, "HepG2 [11]": {"test_system": "HepG2", "assay": "Effect on dysregulation mediated autophagy in human HepG2 cells assessed as increase in LC3B marker expression at 5 to 20 uM measured after 48 hrs incubation by Western blot analysis", "assay_type": "functional, cell-based", "conditions": "dose 5-20 µM"}, "[12]": {"assay": "Toxicity in mouse xenografted with human HepG2 cells assessed as histopathological changes in heart at 5 to 10 mg/kg, ip administered once every 2 days for 21 days by H and E staining based analysis", "assay_type": "organism-based", "conditions": "in vivo, 504 h, dose 5-10 mg/kg, time 21 day"}, "[13]": {"assay": "Toxicity in mouse xenografted with human HepG2 cells assessed as aspartate aminotransferase (AST) at 5 to 10 mg/kg, ip administered once every 2 days for 21 days", "assay_type": "organism-based", "conditions": "in vivo, 504 h, dose 5-10 mg/kg, time 21 day"}, "HepG2 [14]": {"test_system": "HepG2", "assay": "Antitumor activity against human HepG2 cells xenografted mouse model assessed as reduction in tumor growth inhibition at 5 mg/kg, ip administered once every 2 days for 21 days relative to control", "assay_type": "functional", "conditions": "HepG2, 504 h, time 21 day, read-out: TGI"}, "HT-29": {"test_system": "HT-29", "assay": "Antiproliferative activity against human HT-29 cells by MTT assay", "assay_type": "functional, cell-based"}, "HepG2 [15]": {"test_system": "HepG2", "assay": "Cell cycle arrest in human HepG2 cells assessed as accumulation of cells at G2/M phase at 5 uM measured after 24 hrs incubation by flow cytometric analysis", "assay_type": "functional"}, "HepG2 [16]": {"test_system": "HepG2", "assay": "Cell cycle arrest in human HepG2 cells assessed as accumulation of cells at G2/M phase at 20 uM measured after 24 hrs incubation by flow cytometric analysis", "assay_type": "functional"}, "HepG2 [17]": {"test_system": "HepG2", "assay": "Antiproliferative activity against human HepG2 cells by MTT assay", "assay_type": "functional, cell-based"}, "HepG2 [18]": {"test_system": "HepG2", "assay": "Induction of apoptosis in human HepG2 cells assessed as early apoptotic cells at 10 uM measured after 24 hrs incubation by Propidium iodide/Annexin V-FITC analysis (reference value: 2.90%)", "assay_type": "functional"}, "HepG2 [19]": {"test_system": "HepG2", "assay": "Induction of autophagosome formation in human HepG2 cells assessed as green fluorescence in Golgi apparatus by measuring pearson co-localization at 10 uM measured after 12 hrs incubation by mCherry-LC3B assay", "assay_type": "functional"}, "HepG2 [20]": {"test_system": "HepG2", "assay": "Cell cycle arrest in human HepG2 cells assessed as accumulation of cells at G2/M phase at 10 uM measured after 24 hrs incubation by flow cytometric analysis", "assay_type": "functional"}, "HepG2 [21]": {"test_system": "HepG2", "assay": "Induction of apoptosis in human HepG2 cells assessed as late apoptotic cells at 10 uM measured after 24 hrs incubation by Propidium iodide/Annexin V-FITC analysis (reference value: 5.71%)", "assay_type": "functional"}, "HepG2 [22]": {"test_system": "HepG2", "assay": "Effect on dysregulation mediated autophagy in human HepG2 cells assessed as increase in p62 marker expression at 5 to 20 uM measured after 48 hrs incubation by Western blot analysis", "assay_type": "functional, cell-based", "conditions": "dose 5-20 µM"}, "HepG2 [23]": {"test_system": "HepG2", "assay": "Induction of apoptosis in human HepG2 cells assessed as viable cells at 10 uM measured after 24 hrs incubation by Propidium iodide/Annexin V-FITC analysis (reference value: 90.2%)", "assay_type": "functional", "conditions": "read-out: Activity"}, "HepG2 [24]": {"test_system": "HepG2", "assay": "Antitumor activity against human HepG2 cells xenografted mouse model assessed as reduction in tumor weight at 5 to 10 mg/kg, ip administered once every 2 days for 21 days", "assay_type": "functional, organism-based", "conditions": "dose 5-10 mg/kg, time 21.0 day"}, "Lipid bilayer [25]": {"test_system": "Lipid bilayer", "assay": "Vesicular anionophoric activity in Bulky nitrobenzene membrane assessed as induction of relative efflux of chloride ions measured up to 100 hrs by using chloride-selective electrode"}, "[26]": {"assay": "Toxicity in mouse xenografted with human HepG2 cells assessed as creatine kinase (CK) at 5 to 10 mg/kg, ip administered once every 2 days for 21 days", "assay_type": "organism-based", "conditions": "in vivo, 504 h, dose 5-10 mg/kg, time 21 day"}, "[27]": {"assay": "Toxicity in mouse xenografted with human HepG2 cells assessed as histopathological changes in liver at 5 to 10 mg/kg, ip administered once every 2 days for 21 days by H and E staining based analysis", "assay_type": "organism-based", "conditions": "in vivo, 504 h, dose 5-10 mg/kg, time 21 day"}, "HepG2 [28]": {"test_system": "HepG2", "assay": "Induction of apoptosis in human HepG2 cells assessed as late apoptotic cells at 5 uM measured after 24 hrs incubation by Propidium iodide/Annexin V-FITC analysis (reference value: 5.71%)", "assay_type": "functional"}, "Lipid bilayer [29]": {"test_system": "Lipid bilayer", "assay": "Vesicular anionophoric activity in large unilamellar vesicle membrane derived from egg-yolk L-alpha-phosphatidylcholine assessed as induction of relative efflux of chloride ions in presence of cesium (Cs+) measured up to 300 seconds by using chloride-selective electrode", "conditions": "time <= 300.0 sec"}, "HepG2 [30]": {"test_system": "HepG2", "assay": "Induction of autophagosome formation in human HepG2 cells assessed as green fluorescence in lysosomes by measuring pearson co-localization at 10 uM measured after 12 hrs incubation by mCherry-LC3B assay", "assay_type": "functional"}, "[31]": {"assay": "Toxicity in mouse xenografted with human HepG2 cells assessed as blood urea nitrogen (BUN) at 5 to 10 mg/kg, ip administered once every 2 days for 21 days", "assay_type": "organism-based", "conditions": "in vivo, 504 h, dose 5-10 mg/kg, time 21 day"}, "HepG2 [32]": {"test_system": "HepG2", "assay": "Induction of apoptosis in human HepG2 cells assessed as early apoptotic cells at 20 uM measured after 24 hrs incubation by Propidium iodide/Annexin V-FITC analysis (reference value: 2.90%)", "assay_type": "functional"}, "HepG2 [33]": {"test_system": "HepG2", "assay": "Cytotoxicity against human HepG2 cells assessed as cell viability at 1 to 20 uM measured after 24 hrs incubation in presence of chloride anions", "assay_type": "functional, cell-based", "conditions": "dose 1-20 µM"}}, "note": "The source made the active and inactive calls. The calls are words filed in the database; no cut-off is given here.", "data": [{"smiles": "NS(=O)(=O)c1ccc(NC(=O)CCCCCNc2c(Nc3cc(C(F)(F)F)cc(C(F)(F)F)c3)c(=O)c2=O)cc1", "values": [{"measurement": "Activity", "setting": "HepG2 [1]", "value": "Active"}, {"measurement": "Activity", "setting": "HepG2 [2]", "value": 0.13}, {"measurement": "Activity", "setting": "Lipid bilayer [3]", "value": "Active"}, {"measurement": "IC50", "setting": "HCT-8", "value": "> 50", "unit": "µM"}, {"measurement": "Activity", "setting": "[4]", "value": "Non-toxic"}, {"measurement": "Activity", "setting": "HepG2 [5]", "value": "Active"}, {"measurement": "Activity", "setting": "HepG2 [6]", "value": "Active"}, {"measurement": "inhibition in vivo at 10 mg/kg", "setting": "HepG2 [7]", "value": 77, "unit": "%"}, {"measurement": "Activity", "setting": "HepG2 [8]", "value": "Active"}, {"measurement": "EC50", "setting": "Lipid bilayer [9]", "value": 1.53, "unit": "mol%"}, {"measurement": "Activity", "setting": "HepG2 [10]", "value": 7.19, "unit": "%"}, {"measurement": "Activity", "setting": "HepG2 [11]", "value": "Active"}, {"measurement": "Activity", "setting": "[12]", "value": "Non-toxic"}, {"measurement": "Activity", "setting": "[13]", "value": "Non-toxic"}, {"measurement": "inhibition in vivo at 5 mg/kg", "setting": "HepG2 [14]", "value": 62, "unit": "%"}, {"measurement": "IC50", "setting": "HT-29", "value": "> 50", "unit": "µM"}, {"measurement": "Activity", "setting": "HepG2 [15]", "value": 6.95, "unit": "%"}, {"measurement": "Activity", "setting": "HepG2 [16]", "value": 44.07, "unit": "%"}, {"measurement": "IC50", "setting": "HepG2 [17]", "value": 7.13, "unit": "µM"}, {"measurement": "Activity", "setting": "HepG2 [18]", "value": 20.2, "unit": "%"}, {"measurement": "Activity", "setting": "HepG2 [19]", "value": 0.83}, {"measurement": "Activity", "setting": "HepG2 [20]", "value": 17.16, "unit": "%"}, {"measurement": "Activity", "setting": "HepG2 [21]", "value": 24.6, "unit": "%"}, {"measurement": "Activity", "setting": "HepG2 [22]", "value": "Active"}, {"measurement": "viability at 10 µM", "setting": "HepG2 [23]", "value": 50, "unit": "%"}, {"measurement": "Activity", "setting": "HepG2 [24]", "value": "Active"}, {"measurement": "Activity", "setting": "Lipid bilayer [25]", "value": "Active; Compound Exhibit Anion Transport Activity Most Probably Through Carrier Mechanism"}, {"measurement": "Activity", "setting": "[26]", "value": "Non-toxic"}, {"measurement": "Activity", "setting": "[27]", "value": "Non-toxic"}, {"measurement": "Activity", "setting": "HepG2 [28]", "value": 12.9, "unit": "%"}, {"measurement": "Activity", "setting": "Lipid bilayer [29]", "value": "Active"}, {"measurement": "Activity", "setting": "HepG2 [30]", "value": 0.58}, {"measurement": "Activity", "setting": "[31]", "value": "Non-toxic"}, {"measurement": "Activity", "setting": "HepG2 [32]", "value": 34.2, "unit": "%"}, {"measurement": "Activity", "setting": "HepG2 [33]", "value": "Active; Cytotoxicity Enhanced In Presence Of Chloride Anions"}]}]}
